Measurements as given in patent US11078197B2, “5-membered and bicyclic heterocyclic amides as inhibitors of rock” (BRISTOL-MYERS SQUIBB COMPANY, priority 2017, dated 2021).
Read-outs that look alike come from different tables or passages of the source.

Experiments:
[1] = tested on: spontaneously hypertensive rat, renal hypertensive rat and deoxycortisone acetate salt hypertensive rat models; conditions: cited from earlier work
[2] = tested on: Dahl salt-sensitive rats; conditions: congestive heart failure; cited from earlier work
[3] = tested on: neointimal formation in rats; conditions: cited from earlier work
[4] = tested on: porcine model of IL-1 beta-induced coronary stenosis; conditions: long term treatment; cited from earlier work
[5] = tested on: rat stroke model; conditions: cited from earlier work
[6] = target: ROCK2 (Homo sapiens (Human), UniProt O75116); experiment: ROCK2 assay (peptide phosphorylation, LABCHIP 3000 Reader); type: biochemical; conditions: 5 μM ATP, 1.5 μM peptide substrate, dose-response
ROCK2, sequence (O75116 whole entry, species assumed): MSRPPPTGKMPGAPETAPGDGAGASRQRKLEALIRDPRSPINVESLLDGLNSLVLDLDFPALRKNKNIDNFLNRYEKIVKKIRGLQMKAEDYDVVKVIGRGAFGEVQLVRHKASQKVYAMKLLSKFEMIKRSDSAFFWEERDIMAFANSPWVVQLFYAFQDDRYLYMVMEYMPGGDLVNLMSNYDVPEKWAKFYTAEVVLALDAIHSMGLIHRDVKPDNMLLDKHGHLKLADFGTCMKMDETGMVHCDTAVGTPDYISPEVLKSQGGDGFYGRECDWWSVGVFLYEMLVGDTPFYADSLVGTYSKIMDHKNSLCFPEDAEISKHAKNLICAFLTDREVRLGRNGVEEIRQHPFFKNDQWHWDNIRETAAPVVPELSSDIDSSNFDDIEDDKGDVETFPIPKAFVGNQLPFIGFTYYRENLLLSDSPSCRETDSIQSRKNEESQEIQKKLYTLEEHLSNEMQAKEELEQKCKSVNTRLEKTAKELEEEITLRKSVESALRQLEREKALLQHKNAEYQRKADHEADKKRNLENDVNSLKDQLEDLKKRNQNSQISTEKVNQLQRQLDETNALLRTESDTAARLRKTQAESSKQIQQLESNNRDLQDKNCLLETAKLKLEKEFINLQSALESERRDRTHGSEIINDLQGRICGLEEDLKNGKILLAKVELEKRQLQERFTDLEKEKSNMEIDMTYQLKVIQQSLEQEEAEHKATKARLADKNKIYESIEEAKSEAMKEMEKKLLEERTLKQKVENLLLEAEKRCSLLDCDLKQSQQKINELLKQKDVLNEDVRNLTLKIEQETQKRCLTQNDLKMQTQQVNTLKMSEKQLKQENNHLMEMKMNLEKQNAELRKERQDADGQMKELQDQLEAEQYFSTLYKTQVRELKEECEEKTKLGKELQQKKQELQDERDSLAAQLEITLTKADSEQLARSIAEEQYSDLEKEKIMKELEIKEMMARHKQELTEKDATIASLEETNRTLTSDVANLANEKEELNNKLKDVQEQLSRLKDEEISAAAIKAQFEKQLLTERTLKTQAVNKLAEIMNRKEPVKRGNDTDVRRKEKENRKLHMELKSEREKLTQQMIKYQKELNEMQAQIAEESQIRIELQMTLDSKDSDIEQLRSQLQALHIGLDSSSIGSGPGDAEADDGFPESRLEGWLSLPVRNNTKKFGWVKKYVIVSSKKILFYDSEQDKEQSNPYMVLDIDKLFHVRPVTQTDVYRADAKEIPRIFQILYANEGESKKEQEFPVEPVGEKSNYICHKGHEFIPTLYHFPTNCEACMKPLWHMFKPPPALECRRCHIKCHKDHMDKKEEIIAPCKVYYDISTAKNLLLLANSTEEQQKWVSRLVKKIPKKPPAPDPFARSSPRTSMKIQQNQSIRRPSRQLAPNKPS
Method: After incubation, the reaction was terminated by the addition of EDTA and the phosphorylated and non-phosphorylated peptides separated using a LABCHIP®3000 Reader (Caliper Life Sciences). […] Compounds were tested in dose-response format, and the inhibition of kinase activity was calculated at each concentration of compound. […] Representative Examples were tested in the ROCK2 assay described above and found having ROCK2 inhibitory activity.

| IC50 [6] [nM] | SMILES | also measured |
| --- | --- | --- |
|  | C[C@@H](N)[C@H]1CC[C@H](C(=O)Nc2ccncc2)CC1 [Example Y-27632, Y-27632] | blood pressure ([1]; control rats): only a minor effect on blood pressure; blood pressure ([1]; three rat models of hypertension): significantly decrease blood pressure; ventricular hypertrophy, fibrosis and function [2]: improve ventricular hypertrophy, fibrosis and function; neointimal formation [3]: inhibited neointimal formation |
|  | O=S(=O)(c1cccc2cnccc12)N1CCCNCC1 [fasudil] | coronary constrictive remodeling [4]: promote a regression of coronary constrictive remodeling; coronary stenosis [4]: progressively reduce coronary stenosis; infarct size and neurologic deficit [5]: reduce both the infarct size and neurologic deficit |
| 349 | NC(=O)c1cc2sccc2nc1OC1CC2(CC(NC(=O)C3CCC(C(F)(F)F)CC3)C2)C1 (stereo not drawn) [Example 9, 5-((6-(4-(Trifluoromethyl)cyclohexane-1-carboxamido)spiro[3.3]heptan-2-yl)oxy)thieno[3,2-b]pyridine-6-carboxamide] |  |
| 2.3 | Cn1ncc2cc(C(N)=O)c(O[C@H]3C[C@@]4(C[C@H](NC(=O)c5cc(-c6ccc(S(C)(=O)=O)cc6)n(C(F)F)n5)C4)C3)nc21 (stereo partly drawn) [Example 154, 1-(difluoromethyl)-5-(4-methanesulfonylphenyl)-N-[(4s)-6-({5-carbamoyl-1-methyl-1H-pyrazolo[3,4-b]pyridin-6-yl}oxy)spiro[3.3]heptan-2-yl]-1H-pyrazole-3-carboxamide] |  |
| 52.7 | Cn1ncc2cc(C(N)=O)c(O[C@H]3C[C@@]4(C[C@H](NC(=O)c5cccc(CO)n5)C4)C3)nc21 (stereo partly drawn) [Example 148, 6-(hydroxymethyl)-N-[(4s)-6-({5-carbamoyl-1-methyl-1H-pyrazolo[3,4-b]pyridin-6-yl}oxy)spiro[3.3]heptan-2-yl]pyridine-2-carboxamide] |  |
| 639 | Cc1c(C(=O)N[C@H]2C[C@]3(C2)C[C@H](Oc2nn4ccccc4c2C(N)=O)C3)cnn1-c1ccc(C#N)cc1 (stereo partly drawn) [Example 118, 1-(4-cyanophenyl)-5-methyl-N-[(4s)-6-({3-carbamoylpyrazolo[1,5-a]pyridin-2-yl}oxy)spiro[3.3]heptan-2-yl]-1H-pyrazole-4-carboxamide] |  |
| 23.3 | NC(=O)c1sc(C2CC2)nc1O[C@H]1CC2(C[C@H](NC(=O)c3cnn4cc(OCC(F)F)ccc34)C2)C1 (stereo partly drawn) [Example 11, 2-cyclopropyl-4-(((aR)-6-(6-(2,2-difluoroethoxy)pyrazolo[1,5-a]pyridine-3-carboxamido)spiro[3.3]heptan-2-yl)oxy)thiazole-5-carboxamide] |  |
| 253 | Cc1c(C(=O)N[C@H]2C[C@]3(C2)C[C@H](Oc2nn(C(F)F)cc2C(N)=O)C3)cnn1-c1ccc(C#N)cc1 (stereo partly drawn) [Example 54, 1-(4-cyanophenyl)-5-methyl-N-[(aR)-6-{[4-carbamoyl-1-(difluoromethyl)-1H-pyrazol-3-yl]oxy}spiro[3.3]heptan-2-yl]-1H-pyrazole-4-carboxamide] |  |
| 7.7 | CC(C)(O)COc1ccc2c(C(=O)N[C@H]3C[C@]4(C3)C[C@H](Oc3nn(C(F)F)cc3C(N)=O)C4)cnn2c1C1CC1 (stereo partly drawn) [Example 30, 3-({(aR)-6-[7-cyclopropyl-6-(2-hydroxy-2-methylpropoxy)pyrazolo [1,5-a]pyridine-3-aimdo]spiro[3.3]heptan-2-yl}oxy)-1-(difluoromethyl)-1H-pyrazole-4-carboxamide] |  |
| 6.8 | CC(C)(O)COc1ccc2c(C(=O)NC3CC4(C3)CC(Oc3nc5ccsc5cc3C(N)=O)C4)cnn2c1 (stereo not drawn) [Example 76, 5-({6-[6-(2-hydroxy-2-methylpropoxy)pyrazolo[1,5-a]pyridine-3-amido]spiro[3.3]heptan-2-yl}oxy)thieno[3,2-b]pyridine-6-carboxamide] |  |
| 223 | Cc1sc2cc(C(N)=O)c(O[C@H]3C[C@@]4(C[C@H](NC(=O)c5cnn(-c6ccc(F)cc6F)c5C)C4)C3)nc2c1C (stereo partly drawn) [Example 161, 1-(2,4-difluorophenyl)-5-methyl-N-[(4s)-6-({6-carbamoyl-2,3-dimethylthieno[3,2-b]pyridin-5-yl}oxy)spiro[3.3]heptan-2-yl]-1H-pyrazole-4-carboxamide] |  |
| 1480 | COCCn1ncc(C(N)=O)c1O[C@H]1C[C@@]2(C[C@H](NC(=O)c3cnn4c(C5CC5)c(OCC(C)(C)O)ccc34)C2)C1 (stereo partly drawn) [Example 24, 5-({(aR)-6-[7-cyclopropyl-6-(2-hydroxy-2-methylpropoxy)pyrazolo [1,5-a]pyridine-3-amido]spiro[3.3]heptan-2-yl}oxy)-1-(2-methoxyethyl)-1H-pyrazole-4-carboxamide] |  |
| 40.1 | CC(C)(O)COc1ccc2c(C(=O)NC3CC4(C3)CC(Oc3nc5c(cc3C(N)=O)COCC5)C4)cnn2c1 [Example 12, 6-(2-hydroxy-2-methylpropoxy)-N-[(aR)-6-({3-carbamoyl-5H,7H,8H-pyrano[4,3-b]pyridin-2-yl}oxy)spiro[3.3]heptan-2-yl]pyrazolo[1,5-a]pyridine-3-carboxamide] |  |
| 25 | Cc1c(C(=O)N[C@H]2C[C@]3(C2)C[C@H](Oc2nc(C4CC4)sc2C(N)=O)C3)cnn1-c1ccc(Cl)cc1 (stereo partly drawn) [Example 45, 2-cyclopropyl-4-{[(aR)-6-[1-(4-chlorophenyl)-5-methyl-1H-pyrazole-4-amido]spiro[3.3]heptan-2-yl]oxy}-1,3-thiazole-5-carboxamide] |  |
| 53.2 | NC(=O)c1cn(C2CC2)nc1O[C@H]1C[C@@]2(C[C@H](NC(=O)c3cnn4cc(OCC(F)(F)F)ccc34)C2)C1 (stereo partly drawn) [Example 56, 1-cyclopropyl-3-{[(aR)-6-[6-(2,2,2-trifluoroethoxy)pyrazolo [1,5-a]pyridine-3-amido]spiro[3.3]heptan-2-yl]oxy}-1H-pyrazole-4-carboxamide] |  |

| SMILES | IC50 [6] [nM] | also measured |
| --- | --- | --- |
| CC(C)CC1NC(=O)N([C@H]2C[C@@]3(C[C@H](Oc4nc(C5CC5)sc4C(N)=O)C3)C2)C1=O (single isomer, unassigned) [Example 111] | 106 |  |
| CC(C)CC1NC(=O)N([C@H]2CC3(C[C@H](Oc4nn5ccccc5c4C(N)=O)C3)C2)C1=O (stereo partly drawn) [Example 139, 2-(((2S,4s,6S)-6-(4-isobutyl-2,5-dioxoimidazolidin-1-yl)spiro[3.3]heptan-2-yl)oxy)pyrazolo[1,5-a]pyridine-3-carboxamide] | 208 |  |
| Cc1ccn2nc(O[C@H]3C[C@@]4(C[C@H](NC(=O)c5nn(C(F)F)c6cc(OCC(C)(C)O)ccc56)C4)C3)c(C(N)=O)c2c1 (stereo partly drawn) [Example 132, 1-(difluroomethyl)-6-(2-hydroxy-2-methylpropoxy)-N-[(4s)-6-({3-carbamoyl-5-methylpyrazolo[1,5-a]pyridin-2-yl}oxy)spiro[3.3]heptan-2-yl]-1H-indazole-3-carboxamide] | 223 |  |
| Cn1cc(C(N)=O)c(O[C@H]2C[C@@]3(C[C@H](NC(=O)c4nn(C(F)F)c5cc(OCC(C)(C)O)ccc45)C3)C2)n1 (stereo partly drawn) [Example 36, N-{(aR)-6-[(4-carbamoyl-1-methyl-1H-pyrazol-3-yl)oxy]spiro[3.3]heptan-2-yl}-1-(difluoromethyl)-6-(2-hydroxy-2-methylpropoxy)-1H-indazole-3-carboxamide] | 22.4 |  |
